Test results reported in patent publication US7968552B2, “Oxadiazolidinedione compound” (Astellas Pharma Inc., priority 2006, dated 2011).

Experiments:
[1] = test system: MIN6 cell; test: Insulin secretion-promoting action using MIN6 cell; design: species or system mouse; conditions: relative activity value at 1 μM of each compound, based on 100% control (DMSO), 2 hours incubation
Protocol: Test Method 2: Insulin Secretion-Promoting Action Using MIN6 Cell
This rest examined insulin acceleration action of compounds to be tested using a mouse pancreas β cell strain, MIN6 cell. The test method is shown in the following.
The MIN6 cell was dispensed in 5×10^4 cells/well (200 μl) portions into a 96 well plate. DMEM (25 mM glucose) containing 10% FBS, 55 μM 2-mercaptoethanol, 100 U/ml penicillin and 100 μg/ml streptomycin was used as the medium. The medium was discarded 2 days thereafter using an aspirator, followed by washing once with 200 μl of KRB-HEPES (116 mM NaCl, 4.7 mM KCl, 1.2 mM KH2PO4, 1.2 mM MgSO4, 0.25 mM CaCl2, 25 mM NaHCO3, 0.005% FFA Free BSA, 24 mM HEPES (pH 7.4)) containing 2.8 mM glucose, which was warmed up to 37° C., and subsequent incubation again at 37° C. for 1 hour by adding 200 μl of the same buffer. After discarding the above-mentioned buffer using an aspirator and again washing with the buffer (200 μl), a predetermined concentration of a compound to be tested was added to the KRB-HEPES containing 2.8 mM or 22.4 mM glucose and added to respective wells in 100 μl portions and incubated at 37° C. for 2 hours. The above-mentioned samples were fractioned and diluted 100 times, and the insulin concentration was determined using an insulin RIA kit (Amersham RI). The activity value was shown by a relative activity value (%) at the time of 1 μM of each compound, based on 100% control (DMSO).

[2] = target: T1, human GPR40 (Homo sapiens, UniProt O14842, R211H); test: Measurement of GPR40 agonist action (FLIPR, intracellular calcium); assay type: cell-based; conditions: CHO cell strain expressing human GPR40; changes in fluorescence intensity after 1 minute of the measurement
T1 construct: expressed in transfected cells
T1 sequence (O14842 whole entry R211H): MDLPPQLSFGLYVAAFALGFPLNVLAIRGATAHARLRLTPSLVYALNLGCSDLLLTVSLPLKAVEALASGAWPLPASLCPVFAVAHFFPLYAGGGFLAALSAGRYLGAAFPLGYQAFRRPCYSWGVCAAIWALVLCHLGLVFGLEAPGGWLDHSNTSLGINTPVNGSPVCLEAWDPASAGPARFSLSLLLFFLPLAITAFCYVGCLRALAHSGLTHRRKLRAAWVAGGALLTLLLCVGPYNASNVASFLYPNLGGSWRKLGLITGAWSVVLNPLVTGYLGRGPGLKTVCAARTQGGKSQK
Description: Test Method 1: Measurement of GPR40 Agonist Action […]
i) Cloning of Human GPR40
Complete length sequence of GPR40 was obtained by carrying out a PCR method in accordance with the procedure shown below using a human genomic DNA (Clontech) as the template.
An oligonucleotide consisting of the nucleotide sequence represented by SEQ ID NO:1 was used as the forward primer, and an oligonucleotide consisting of the nucleotide sequence represented by SEQ ID NO:2 as the reverse primer. In this connection, a nucleotide sequence comprising a XbaI recognition region is added to the respective 5′-termini of the aforementioned forward primer and reverse primer. PCR was carried out in the presence of 5% dimethyl sulfoxide (DMSO) using a Taq DNA polymerase (Ex Taq DNA polymerase; Takara Bio), by repeating 30 times of a cycle consisting of 94° C. (15 seconds)/55° C. (30 seconds)/72° C. (1 minute). As a result, a DNA fragment of about 0.9 kbp was amplified. This DNA fragment was digested with XbaI and then inserted into the XbaI site of a plasmid pEF-BOS-dhfr (Nucleic acids Research, 18, 5322, 1990), thereby obtaining a plasmid pEF-BOS-dhfr-GPR40.
Nucleotide sequence of the GPR40 gene in the pEF-BOS-dhfr-GPR40 was determined by the dideoxy terminator method using a DNA sequencer (ABI 377 DNA Sequencer, Applied Biosystems). Nucleotide sequence of the GPR40 gene was as the nucleotide sequence represented by SEQ ID NO:3. The nucleotide sequence represented by SEQ ID NO:3 has an open reading frame (ORF) of 903 bases, and the amino acid sequence deduced from this ORF (300 amino acids) was as the amino acid sequence represented by SEQ ID NO:4. […]
ii) Preparation of GPR40 Stable Expression Cell
As the cell for expressing GPR protein, CHO dhfr cell (a dihydrofolate reductase (dhfr)-deficient CHO cell) was used. Also, as the plasmid for expressing GPR40 protein, the plasmid pEF-BOS-dhfr-GPR40 obtained in the aforementioned i) was used. The CHO dhfr cell was inoculated into αMEM medium containing 10% fetal calf serum (FCS) using a 6 well plate (Asahi Techno Glass) and cultured overnight to an 80 to 90% confluence, and then 2 μg per well of the plasmid pEF-BOS-dhfr-GPR40 was gene-transferred using a transfection reagent (Lipofectamine 2000; Invitrogen). After 24 hours of culturing from the gene transfer, the cells were diluted and inoculated again. […] After 20 days of culturing, the thus formed colonies of cells were individually recovered and cultured to obtain CHO cells stably expressing GPR40. From these, cells having high reactivity for intrinsic ligands oleic acid and linoleic acid were selected. […]
iii) Measurement of GPR40 Agonist Action
This test was measured by FLIPR (registered trademark, Molecular Device) using a change in intracellular calcium concentration as the index. The test method is shown in the following.
A CHO cell strain in which human GPR40 was expressed was inoculated into a 384 well black plate (Becton Dickinson) in 6×10^3 cells per well portions and cultured overnight in a CO2 incubator.
Using Calcium-3 assay kit (Molecular Device), one bottle of the phosphorescent pigment was dissolved in 10 ml of HBSS-HBEPES buffer (pH 7.4, 1×HBSS, 20 mM HEPES, Invitrogen). A 35.68 mg of probenecid (Sigma) was dissolved in 250 μl of 1M NaOH and adjusted by adding 250 μl of the HBSS-HEPES buffer. A phosphorescent pigment solution was prepared by mixing 16 ml of HBSS-HEPES buffer, 640 μl of the phosphorescent pigment and 32 μl of probenecid per one plate. The medium was discarded from the plate, and the phosphorescent pigment solution was dispensed in 40 μl per well portions and then incubated at room temperature for 2 hours. Each compound to be tested was dissolved in DMSO and then diluted with HBSS-HEPES buffer and dispensed in 10 μl portions into the plate, thereby starting the reaction, and changes in the intracellular calcium concentration were measured by FLIPR. […]

[3] = test system: blood glucose after glucose loading; test: Normal mice single oral glucose tolerance test; assay type: in vivo; conditions: Mus musculus, 0.5 h, male ICR mice, 10 mg/kg orally 30 minutes before glucose loading (2 g/kg), 30 minutes after glucose loading, based on control group, read-out: Blood glucose lowering ratio
Protocol: Test Method 3: Normal Mice Single Oral Glucose Tolerance Test
This test examined on the blood glucose suppression action of compounds to be tested after glucose loading, using normal mice. The test method is shown below.
Male ICR mice (6 weeks of age) after 1 week of preliminary rearing were subjected to overnight fasting and used as the animals to be tested. Each compound to be tested was made into a 0.5% methyl cellulose suspension and orally administered at a dose of 10 mg/kg 30 minutes before the glucose loading (2 g/kg). Administration of 0.5% methyl cellulose was used in the control group. Blood glucose lowering ratio (%) after 30 minutes of glucose loading was calculated based on the control group.

Structure (SMILES)	Insulin secretion-accelerating action [1] [%]	EC50 [2] [nM]	inhibition in vivo at 10 mg/kg [3] [%]
COc1cc(F)c(-c2cccc(COc3ccc(Cn4oc(=O)[n-]c4=O)cc3)c2)c(F)c1.[Na+] [Example 4, sodium 2-{4-[(2′,6′-difluoro-4′-methoxybiphenyl-3-yl)methoxy]benzyl}-3,5-dioxo-1,2,4-oxadiazolidin-4-ide]	177	350	
O=c1[nH]c(=O)n(Cc2ccc(OCc3cccc(-c4ccc(OCCO)cc4)c3)cc2)o1 [Example 8]		31	
O=c1[nH]c(=O)n(Cc2ccc(OCc3cccc(Br)c3)cc2)o1 [Example 9, 2-{4-[(3-bromobenzyl)oxy]benzyl}-1,2,4-oxadiazolidine-3,5-dione]		800	
Cc1cc(OCCO)ccc1-c1cccc(COc2ccc(Cn3oc(=O)[nH]c3=O)cc2)c1 [Example 14, sodium 2-(4-{[4′-(2-hydroxyethoxy)-2′-methylbiphenyl-3-yl]methoxy}benzyl)-3,5-dioxo-1,2,4-oxadiazolidin-4-ide]		390	34
Cc1cccc(C)c1-c1cccc(C(=O)Nc2ccc(Cn3oc(=O)[nH]c3=O)cc2)c1 [Example 16, sodium 2-(4-{[(2′,6′-dimethylbiphenyl-3-yl)carbonyl]amino}benzyl)-3,5-dioxo-1,2,4-oxadiazolidin-4-ide]		450	
O=c1[nH]c(=O)n(Cc2ccc(OCc3cccc(-c4cccnc4)c3)cc2)o1 [Example 33]		640	
N#Cc1ccc(-c2cccc(COc3ccc(Cn4oc(=O)[nH]c4=O)cc3)c2)cc1 [Example 34]	169		
O=c1[n-]c(=O)n(Cc2ccc(OCc3cccc(Oc4ccccc4)c3)cc2)o1.[Na+] [Example 38]	228	650	
Cc1cccc(C)c1-c1cccc(COc2ccc(Cn3oc(=O)[n-]c3=O)cc2)c1.[Na+] [Example 39]	192	260	26
CCOCCOc1cc(C)c(-c2cccc(COc3ccc(Cn4oc(=O)[n-]c4=O)cc3)c2)c(C)c1.[Na+] [Example 44]	287	670	21
COc1cc(C)c(-c2cccc(COc3ccc(Cn4oc(=O)[nH]c4=O)cc3)c2)c(C)c1 [Example 47]		420	36
COc1cccc(OC)c1-c1cccc(COc2ccc(Cn3oc(=O)[nH]c3=O)cc2)c1 [Example 56]		760	31
O=c1[nH]c(=O)n(Cc2ccc(OCc3cccc(-c4c(Cl)cccc4Cl)c3)cc2)o1 [Example 60]		460	35
Cc1cccc(C)c1-c1cncc(COc2ccc(Cn3oc(=O)[nH]c3=O)cc2)c1 [Example 82]		930	
Cc1cccc(C)c1-c1cccc(COc2ccc(Cn3oc(=O)[nH]c3=O)cn2)c1 [Example 99]		450	
Cc1cc(C(=O)NC2CCOCC2)ccc1-c1cccc(COc2ccc(Cn3oc(=O)[nH]c3=O)cc2)c1 [Example 117]		290	21
Cc1cc(OS(C)(=O)=O)cc(C)c1-c1cccc(COc2ccc(Cn3oc(=O)[nH]c3=O)cc2)c1 [Example 119]		220	22
Cc1cc(OCCC(C)(C)O)cc(C)c1-c1cccc(COc2ccc(Cn3oc(=O)[nH]c3=O)cc2)c1C [Example 166]		220	35
Cc1cc(OCC[C@H](C)O)ccc1-c1cccc(COc2ccc(Cn3oc(=O)[nH]c3=O)cc2)c1C [Example 173]		660	21
CC(=O)NCCCOc1ccc(-c2cccc(COc3ccc(Cn4oc(=O)[nH]c4=O)cc3)c2C)c(C)c1 [Example 189]		59	30
Cc1cc(OCC[C@H](C)O)cc(C)c1-c1cccc(COc2ccc(Cn3oc(=O)[nH]c3=O)cc2)c1C [Example 193]		520	46
Cc1cccc(C)c1-c1cccc(CNc2ccc(Cn3oc(=O)[nH]c3=O)cc2)c1 [Example 406]		120	42
